Test results: ChEMBL document CHEMBL1131553, “Orally active indole N-oxide PDE4 inhibitors” (Bioorg Med Chem Lett, 1998)

Legend:
[1] = system: Mus musculus; test: In vivo inhibition of LPS induced tumor necrosis factor (TNF-alpha) in mice at 50 mg/kg; type: functional
[2] = biological target: T1, Phosphodiesterase 4 (Homo sapiens, UniProt P27815+Q08499+Q07343+Q08493); type: protein assay
[3] = system: Mus musculus; test: In vivo inhibition of LPS induced tumor necrosis factor (TNF-alpha) in mice at 10 mg/kg; type: functional
[4] = biological target: T1, Phosphodiesterase 4; test: Inhibition of phosphodiesterase type IV (PDE4) activity; type: protein assay
[5] = system: Canis familiaris; test: Emetic effect in dogs on intravenous dose (2/2); type: functional; conditions: Canis lupus familiaris
[6] = system: Mus musculus; test: In vivo inhibition of LPS induced tumor necrosis factor (TNF-alpha) in mice; type: functional
[7] = system: Canis familiaris; test: Emetic effect in dogs on intravenous dose (3/4); type: functional; conditions: Canis lupus familiaris
[8] = Value distribution upon iv administration in mouse; type: ADME, organism-based; conditions: in vivo, read-out: Vdss
[9] = Area under curve by iv administration in mouse; type: ADME, organism-based; conditions: in vivo
[10] = system: Canis familiaris; test: Emetic effect in dogs on intravenous dose (0/4); type: functional; conditions: Canis lupus familiaris
[11] = Time taken to reach maximum concentration in plasma upon oral administration in mouse; type: ADME, organism-based
[12] = Half-life by iv administration in mouse; type: ADME, organism-based; conditions: in vivo
[13] = Oral bioavailability in mouse; type: ADME, organism-based; conditions: in vivo
[14] = Area under curve by ioral administration in mouse; type: ADME, organism-based; conditions: in vivo, po
[15] = Plasma clearance value upon iv administration in mouse; type: ADME, organism-based
[16] = Maximum concentration in plasma upon oral administration in mouse; type: ADME, organism-based; conditions: read-out: Cp max
[17] = Half-life by oral administration in mouse; type: ADME, organism-based; conditions: in vivo
[18] = system: Canis familiaris; test: Emetic effect in dogs on intravenous dose (4/4); type: functional; conditions: Canis lupus familiaris
[19] = system: Rattus norvegicus; test: Percentage change in body weight of rats in streptococcal cell wall-washed arthritis model at 10.0 mg/kg peroral dose; type: functional; conditions: route oral
[20] = system: Rattus norvegicus; test: Inhibition of streptococcal cell wall-washed arthritis model in rats at 30.0 mg/kg peroral dose; type: functional; conditions: route oral
[21] = system: Rattus norvegicus; test: Inhibition of streptococcal cell wall-washed arthritis model in rats at 3.0 mg/kg peroral dose; type: functional; conditions: route oral
[22] = system: Rattus norvegicus; test: Percentage change in body weight of rats in streptococcal cell wall-washed arthritis model at 30.0 mg/kg peroral dose; type: functional; conditions: route oral
[23] = system: Rattus norvegicus; test: Streptococcal cell wall-washed arthritis model in rats at 3.0 mg/kg peroral dose; type: functional; conditions: route oral
[24] = system: Rattus norvegicus; test: Streptococcal cell wall-washed arthritis model in rats at 10.0 mg/kg peroral dose; type: functional; conditions: route oral
[25] = system: Rattus norvegicus; test: Streptococcal cell wall-washed arthritis model in rats at 30.0 mg/kg peroral dose; type: functional; conditions: route oral
[26] = system: Rattus norvegicus; test: Percentage change in body weight of rats in streptococcal cell wall-washed arthritis model at 3.0 mg/kg peroral dose; type: functional; conditions: route oral
[27] = system: Rattus norvegicus; test: Inhibition of streptococcal cell wall-washed arthritis model in rats at 10.0 mg/kg peroral dose; type: functional; conditions: route oral

| Structure (SMILES) | inhibition in vivo at 50 mg/kg [1] [%] | Ki [2] [nM] | IC50 [4] [nM] | other results |
| --- | --- | --- | --- | --- |
| Cc1cn(Cc2ccccc2)c2cc(C(=O)Nc3c(Cl)cncc3Cl)ccc12 | 0 |  |  |  |
| Cc1cn(CCCCc2ccccc2)c2cc(C(=O)Nc3c(Cl)c[n+]([O-])cc3Cl)ccc12 |  | 135 | 46 | inhibition in vivo at 10 mg/kg [3]: 53% |
| Cc1cn(Cc2ccc(S(C)(=O)=O)cc2)c2cc(C(=O)Nc3c(Cl)c[n+]([O-])cc3Cl)ccc12 | 38 | 1124 | 260 |  |
| Cc1cn(CC2CCCCCC2)c2cc(C(=O)Nc3c(Cl)c[n+]([O-])cc3Cl)ccc12 |  | 30 | 20 | inhibition in vivo at 10 mg/kg [3]: 8% |
| Cc1nc(Cn2cc(C)c3ccc(C(=O)Nc4c(Cl)c[n+]([O-])cc4Cl)cc32)cs1 | 52 | 64 | 80 |  |
| Cc1cn(Cc2ccc(C(=O)O)cc2)c2cc(C(=O)Nc3c(Cl)c[n+]([O-])cc3Cl)ccc12 |  | 3184 | 1400 |  |
| COc1ccc(C2CNC(=O)C2)cc1OC1CCCC1 (configuration not stated) [ROLIPRAM] |  |  |  | ED50 [5]: 0.03 mg/kg; ED50 [6]: 8.2 mg/kg |
| Cc1cn(CCC2CCCCC2)c2cc(C(=O)Nc3c(Cl)c[n+]([O-])cc3Cl)ccc12 |  | 12 | 4.1 | ED50 [7]: 1 mg/kg; ED50 [6]: 7.4 mg/kg |
| Cc1cn(Cc2ccccc2)c2cc(C(=O)Nc3c(Cl)c[n+]([O-])cc3Cl)ccc12 |  | 60 | 8 | Vd [8]: 0.9 L/kg; AUC [9]: 2020 ng·h/mL; ED50 [10]: 3 mg/kg; Tmax [11]: 15 min; half-life [12]: 306 min; ED50 [6]: 20 mg/kg; bioavailability [13]: 33%; AUC [14]: 669 ng·h/mL; clearance [15]: 8.33 mL/min/kg; Cmax [16]: 393 ng/mL; half-life [17]: 222 min |
| COc1ccc(C(=O)Nc2c(Cl)cncc2Cl)cc1OC1CCCC1 |  |  |  | ED50 [18]: 0.6 mg/kg; ED50 [6]: 3.1 mg/kg |
| Cc1cn(Cc2ccc(C(F)(F)F)cc2)c2cc(C(=O)Nc3c(Cl)c[n+]([O-])cc3Cl)ccc12 |  | 67 | 14 | ED50 [6]: 10 mg/kg |
| Cc1cn(Cc2ccc3c(c2)OCO3)c2cc(C(=O)Nc3c(Cl)c[n+]([O-])cc3Cl)ccc12 | 40 | 86 | 24 |  |
| Cc1cn(CCCc2ccccc2)c2cc(C(=O)Nc3c(Cl)c[n+]([O-])cc3Cl)ccc12 | 34 | 30 | 7 |  |
| Cc1cn(CC2CCCCC2)c2cc(C(=O)Nc3c(Cl)cncc3Cl)ccc12 | 0 |  |  |  |
| Cc1cn(C2CCCCC2)c2cc(C(=O)Nc3c(Cl)c[n+]([O-])cc3Cl)ccc12 |  | 38 | 19 |  |
| Cc1cn(CC2CCCCC2)c2cc(C(=O)Nc3c(Cl)c[n+]([O-])cc3Cl)ccc12 |  | 86 | 30 | Vd [8]: 1.7 L/kg; AUC [9]: 3260 ng·h/mL; Change [19]: -7%; inhibition in vivo at 30 mg/kg [20]: 77%; ED50 [10]: > 0.8 mg/kg; inhibition in vivo at 3 mg/kg [21]: 25%; Tmax [11]: 60 min; half-life [12]: 216 min; ED50 [6]: 7.1 mg/kg; bioavailability [13]: 96%; AUC [14]: 3140 ng·h/mL; Change [22]: -13%; Mean AUC [23]: 3.7; Mean AUC [24]: 3.3; clearance [15]: 5 mL/min/kg; Mean AUC [25]: 1.1; Cmax [16]: 439 ng/mL; half-life [17]: 150 min; Change [26]: -5%; inhibition in vivo at 10 mg/kg [27]: 33% |
| Cc1cn(Cc2ccc3ccccc3c2)c2cc(C(=O)Nc3c(Cl)c[n+]([O-])cc3Cl)ccc12 |  | 51 | 22 |  |
| Cc1cn(Cc2nccn2Cc2ccccc2)c2cc(C(=O)Nc3c(Cl)c[n+]([O-])cc3Cl)ccc12 | 38 | 393 | 420 |  |
| Cc1noc(C)c1Cn1cc(C)c2ccc(C(=O)Nc3c(Cl)c[n+]([O-])cc3Cl)cc21 | 40 | 225 | 500 |  |
| Cc1cn(CC(C)C)c2cc(C(=O)Nc3c(Cl)c[n+]([O-])cc3Cl)ccc12 |  | 116 | 38 | inhibition in vivo at 10 mg/kg [3]: 0% |
| Cc1cn(Cc2ccc(Cl)cc2)c2cc(C(=O)Nc3c(Cl)c[n+]([O-])cc3Cl)ccc12 | 10 | 71 | 12 |  |
| Cc1cn(CCCC2CCCCC2)c2cc(C(=O)Nc3c(Cl)c[n+]([O-])cc3Cl)ccc12 | 47 | 67 | 16 |  |
